Laboratory results from patent US20240269298A1, “PHOSPHONYL DERIVATIVE, AND COMPOSITION AND PHARMACEUTICAL APPLICATION THEREOF” (XIZANG HAISCO PHARMACEUTICAL CO., LTD., priority 2021, published 2024).
Read-outs that look alike come from different tables or passages of the source.

Key:
[1] = tested on: NCI-H1975 EGFR-L858R-T790M-C797S cells; experiment: Inhibitory activity on proliferation of NCI-H1975 EGFR-L858R-T790M-C797S cells (CellTiter-Glo, 72 h); type: cell-based; details: Homo sapiens
Procedure: NCI-H1975 EGFR-L858R-T790M-C797S cells were cultured in an incubator at 37° C. with 5% CO2, and the culture medium was RPMI1640+10% FBS+100 μg/mL hygromycin. The cells in the logarithmic phase were collected, and the cell suspension was adjusted to an appropriate concentration with a hygromycin-free culture medium, and then plated on a 96-well plate at a density of 1500 cells/well and a volume of 90 μL. 10 μL of the compounds at different concentrations were added, and a vehicle control group (cells plus DMSO) was provided, wherein the concentration of DMSO was 0.1%. The cell culture plate was cultured in an incubator at 37° C. with 5% CO2 for 72 hours. After the incubation was completed, according to operation instructions for a CellTiter-Glo kit (Promega, G7572), 50 μL of CTG solution, which was already pre-melted and equilibrated to room temperature, was added to each well, and the mixtures were uniformly mixed for 2 min using a microplate shaker. The plate was placed at room temperature for 10 min, and then […] signal values were measured using a microplate reader (Envision 2104). […] was processed based on formula (2), and using the GraphPad Prism 5.0 software and nonlinear regression model, S-shaped dose-survival curves were plotted, and IC50 values were calculated. wherein Vsample was the readout of the drug-treated group, and Vvehicle control was the readout of the control group.

[2] = tested on: NCI-H1975 (EGFR-L858R-T790M) cells; experiment: Inhibitory activity on proliferation of NCI-H1975 (EGFR-L858R-T790M) cells (CTG, 72 h); type: cell-based; details: Homo sapiens
Procedure, shortened: (§1)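 IC50 values come from S-shaped dose-survival fits of CTG signal expressed as % of vehicle. Compound exposure lasted 72 h at 37 °C with 0.1% DMSO; seeding was 3000 A431 cells/well in DMEM+10% FBS and 1000 NCI-H1975 cells/well in RPMI1640+10% FBS.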

[3] = Pharmacokinetic test in mice; type: in vivo; details: male, ICR, mouse, po, administration i.g. (10 mg/kg), plasma
Procedure: Test objective: In this experiment, a single dose of test compounds was administered to ICR mice intravenously and intragastrically, the concentrations of the test compounds in plasma of mice were measured, and the pharmacokinetic characteristics and bioavailability of the test compounds in mice were evaluated.
Experimental animals: male ICR mice, 20-25 g, purchased from BEIJING HFK BIOSCIENCE CO., LTD. with the laboratory animal production license number of SCXK (JING) 2019-0008; or purchased from CHENGDU DDOSSY EXPERIMENTAL ANIMALS CO., LTD. (SCXK (CHUAN) 2020-030); or purchased from HUNAN SJA LABORATORY ANIMAL CO., LTD. (SCXK (XIANG) 2019-0004).
Experimental method: on the day of the experiment, ICR mice were randomly grouped according to their body weights. The mice were fasted with water available for 12 to 14 hours one day before the administration, and were fed 4 hours after the administration.
Sampling: before and after the administration, blood was taken from the orbits of the mice under isoflurane anesthesia, and placed in an EDTAK2 centrifuge tube. Centrifugation was carried out at 5000 rpm at 4° C. for 10 min, and the plasma was collected.
Time points for plasma collection in G1&G2 groups: 0, 5 min, 15 min, 30 min, 1h, 2h, 4h, 6h, 8h, and 24 h; • time points for plasma collection in G3 group: 0, 5 min, 15 min, 30 min, 1 h, 2 h, 4 h, 6h, 8h, and 24 h; • before analysis and detection, all samples were stored at −80° C. The samples were analyzed quantitatively by LC-MS/MS.

[4] = tested on: A431 (EGFR-WT) cells; experiment: Inhibitory activity on proliferation of A431 (EGFR-WT) cells (CTG, 72 h); type: cell-based; details: Homo sapiens, A-431
Procedure, shortened: as §1

[5] = read-out: IC50 (value in brackets)

| IC50 ([1]; read-out: IC50 (class symbol)) [nM] | IC50 ([1]; read-out: IC50 (value)) [nM] | IC50 ([2]; read-out: IC50 (class symbol)) [nM] | IC50 [2, 5] [nM] | AUC [3] [ng·h/mL] | half-life [3] [h] | IC50 [4] [nM] | AUC(0-t) [3] [ng·h/mL] | SMILES |
| --- | --- | --- | --- | --- | --- | --- | --- | --- |
| < 200 | 39 | < 100 | 14 |  |  |  |  | COc1cc(N2CCC3(CCN(CC4CCN(c5ccc6c(c5)C(=O)N(C5CCC(=O)NC5=O)C6=O)CC4)CC3)CC2)c(-c2cnn(C)c2)cc1Nc1ncc(Cl)c(Nc2ccc3nccnc3c2P(C)(C)=O)n1 (stereo not shown) [Compound 9, 5-(4-((9-(4-((5-chloro-4-((5-(dimethylphosphoryl)quinoxalin-6-yl)amino)pyrimidin-2-yl)amino)-5-methoxy-2-(1-methyl-1H-pyrazol-4-yl)phenyl)-3,9-diazaspiro[5.5]undecan-3-yl)methyl)piperidin-1-yl)-2-(2,6-dioxopiperidin-3-yl)isoindoline-1,3-dione] |
| 500 to 1000 | 704 | 100 to 500 | 658 | 2090 | 1.23 |  |  | COc1cc(N2CCC(N3CCN(C(=O)CNc4cccc5c4C(=O)N(C4CCC(=O)NC4=O)C5=O)CC3)CC2)ccc1Nc1ncc(Cl)c(Nc2ccccc2P(C)(C)=O)n1 (stereo not shown) [Control compound B, reference compound] |
| < 200 | 27 | < 100 | 15 |  |  | ≥ 10000 |  | COc1cc(N2CCC(N3CCN(CC4CCN(c5ccc6c(c5)C(=O)N(C5CCC(=O)NC5=O)C6=O)C4)CC3)CC2)c(-c2cnn(C)c2)cc1Nc1ncc(Cl)c(Nc2ccc3nccnc3c2P(C)(C)=O)n1 (stereo not shown) [Compound 6, 5-(3-((4-(1-(4-((5-chloro-4-((5-(dimethylphosphoryl)quinoxalin-6-yl)amino)pyrimidin-2-yl)amino)-5-methoxy-2-(1-methyl-1H-pyrazol-4-yl)phenyl)piperidin-4-yl)piperazin-1-yl)methyl)pyrrolidin-1-yl)-2-(2,6-dioxopiperidin-3-yl)isoindoline-1,3-dione] |
| < 200 | 30 | < 100 | 20 |  |  | ≥ 10000 |  | COc1cc(N2CCC(N3CCN(C4CC5(CCN(c6ccc7c(c6)C(=O)N(C6CCC(=O)NC6=O)C7=O)CC5)C4)CC3)CC2)c(-c2cnn(C)c2)cc1Nc1ncc(Cl)c(Nc2ccc3nccnc3c2P(C)(C)=O)n1 (stereo not shown) [Trifluoroacetate of compound 7, 5-(2-(4-(1-(4-((5-chloro-4-((5-(dimethylphosphoryl)quinoxalin-6-yl)amino)pyrimidin-2-yl)amino)-5-methoxy-2-(1-methyl-1H-pyrazol-4-yl)phenyl)piperidin-4-yl)piperazin-1-yl)-7-azaspiro[3.5]nonan-7-yl)-2-(2,6-dioxopiperidin-3-yl)isoindoline-1,3-dione] |
| < 200 | 24 | < 100 | 12 |  |  | ≥ 10000 |  | COc1cc(N2CCC(N3CCN(CC4CCN(c5ccc6c(c5)C(=O)N(C5CCC(=O)NC5=O)C6=O)CC4)CC3)CC2)c(-c2cnn(C)c2)cc1Nc1ncc(Br)c(Nc2ccc3nccnc3c2P(C)(C)=O)n1 (stereo not shown) [Compound 18, 5-(4-((4-(1-(4-((5-bromo-4-((5-(dimethylphosphoryl)quinoxalin-6-yl)amino)pyrimidin-2-yl)amino)-5-methoxy-2-(1-methyl-1H-pyrazol-4-yl)phenyl)piperidin-4-yl)piperazin-1-yl)methyl)piperidin-1-yl)-2-(2,6-dioxopiperidin-3-yl)isoindoline-1,3-dione] |
|  | 1380 | 100 to 500 | 549 | 563 | 1.54 |  |  | COc1cc(N2CCC(N3CCN(CCOCC#Cc4cccc5c4CN(C4CCC(=O)NC4=O)C5=O)CC3)CC2)ccc1Nc1ncc(Cl)c(Nc2ccccc2P(C)(C)=O)n1 (stereo not shown) [Control compound A, reference compound] |
| < 200 | 136 | 100 to 500 | 129 |  |  | ≥ 10000 | 62300 | COc1cc(N2CCC(CN3CCN(c4ccc5c(c4)C(=O)N(C4CCC(=O)NC4=O)C5=O)CC3)CC2)c(-c2cnn(C)c2)cc1Nc1ncc(Cl)c(Nc2ccc(-c3ccccc3)cc2P(C)(C)=O)n1 (stereo not shown) [Compound 65, 5-(4-((1-(4-((5-chloro-4-((3-(dimethylphosphoryl)-[1,1′-biphenyl]-4-yl)amino)pyrimidin-2-yl)amino)-5-methoxy-2-(1-methyl-1H-pyrazol-4-yl)phenyl)piperidin-4-yl)methyl)piperazin-1-yl)-2-(2,6-dioxopiperidin-3-yl)isoindoline-1,3-dione] |
| < 200 | 152 | 100 to 500 | 107 | 118000 | 12.7 | ≥ 10000 |  | COc1cc(N2CCC(CN3CCN(c4ccc5c(c4)C(=O)N(C4CCC(=O)NC4=O)C5=O)CC3)CC2)c(-c2cnn(C)c2)cc1Nc1ncc(Br)c(Nc2ccc(-c3ccccc3F)cc2P(C)(C)=O)n1 (stereo not shown) [Compound 101, 5-(4-((1-(4-((5-bromo-4-((3-(dimethylphosphoryl)-2′-fluoro-[1,1′-biphenyl]-4-yl)amino)pyrimidin-2-yl)amino)-5-methoxy-2-(1-methyl-1H-pyrazol-4-yl)phenyl)piperidin-4-yl)methyl)piperazin-1-yl)-2-(2,6-dioxopiperidin-3-yl)isoindoline-1,3-dione] |
| 200 to 500 | 364 | 100 to 500 | 105 |  |  | ≥ 10000 | 59200 | COc1cc(N2CCC(CN3CCN(c4ccc5c(c4)C(=O)N(C4CCC(=O)NC4=O)C5=O)CC3)CC2)c(-c2cnn(C)c2)cc1Nc1ncc(Br)c(Nc2ccc(-c3ccccc3)cc2P(C)(C)=O)n1 (stereo not shown) [Compound 45, 5-(4-((1-(4-((5-bromo-4-((3-(dimethylphosphoryl)-[1,1′-biphenyl]-4-yl)amino)pyrimidin-2-yl)amino)-5-methoxy-2-(1-methyl-1H-pyrazol-4-yl)phenyl)piperidin-4-yl)methyl)piperazin-1-yl)-2-(2,6-dioxopiperidin-3-yl)isoindoline-1,3-dione] |
| < 200 | 72 | 100 to 500 | 110 |  |  | ≥ 10000 | 30600 | COc1cc(N2CCC(CN3CCC4(CC3)CCN(c3cc5c(cc3F)C(=O)N(C3CCC(=O)NC3=O)C5=O)CC4)CC2)c(-c2cnn(C)c2)cc1Nc1ncc(Br)c(Nc2ccc(-c3ccccc3)cc2P(C)(C)=O)n1 (stereo not shown) [Compound 47, 5-(9-((1-(4-((5-bromo-4-((3-(dimethylphosphoryl)-[1,1′-biphenyl]-4-yl)amino)pyrimidin-2-yl)amino)-5-methoxy-2-(1-methyl-1H-pyrazol-4-yl)phenyl)piperidin-4-yl)methyl)-3,9-diazaspiro[5.5]undecan-3-yl)-2-(2,6-dioxopiperidin-3-yl)-6-fluoroisoindoline-1,3-dione] |
